Reference: US20220016101A1 (ACADIA Pharmaceuticals Inc., priority 2018, published 2022)

Tested on: patients with MDD and an inadequate response to an SSRI or SNRI
Experiment: Massachusetts General Hospital Sexual Functioning Index (MGH-SFI), Study ACP-103-042
Assay type: in vivo, human
Description: “Massachusetts General Hospital Sexual Functioning Index (MGH-SFI)” is described, for instance, in Labbate and Lare, 2001, Psychother Psychosom. 70(4):221-225. This is a patient facing questionnaire that quantifies sexual dysfunction into 5 functional domains (“interest in sex,” “sexual arousal,” “ability to achieve orgasm,” “ability to maintain erection” (males only), and “sexual satisfaction”). Patients rate each item using a 6-point scale ranging from 1 (good function) to 6 (poor function). High scores indicate poor sexual functioning. […] The determination of the subject's status and eligibility for randomization in Stage 2 was made in a double-blind manner. […] Sexual functioning was assessed using the Massachusetts General Hospital Sexual Functioning Index or MGH-SFI (Labbate and Lare, 2001, Psychother Psychosom. 70(4):221-225). This is a patient facing questionnaire that quantifies sexual dysfunction into 5 functional domains (“interest in sex,” “sexual arousal,” “ability to achieve orgasm,” “ability to maintain erection” [malesonly], and “sexual satisfaction”). Patients rate each item using a 6-point scale ranging from 1 (good function) to 6 (poor function). The time frame for this scale is the past month. This scale was administered at baseline and Week 5 in both stages of the study. High scores indicate poor sexual functioning. In ACP-103-042 the mean scores for MGH-SFI at Baseline was calculated over all 5 domains for males and the 4 domains for females. For MGH-SFI (follow-up version) at Study Weeks 5 and 10, the mean was calculated in the same way as MGH-SFI at Baseline. […] Tables 10-27 summarize the detailed data of MGH-SFI individual items of the overall study group (Tables 10-15), the subgroup of age of <=50 (Tables 16-21) and the subgroup of age of >50 (Table 21-26). In Tables 9-26, ANCOVA=analysis of covariance; OC=observed cases; LSM=least squares mean; CI=confidence interval; SD=standard deviation; SE=standard error. Stage 1: Baseline=Study Week 0, Week 5=Study Week 5; Stage 2: Baseline=Study Week 5, Week 5=Study Weeks 10. LSM from the stage-specific ANCOVA analysis with the change from baseline as the outcome, treatment group as a factor, and the corresponding Baseline value as a covariate. 2-sided p-value for treatment difference from the stage-specific ANCOVA analysis. An treatment effect size (Cohen's d) is calculated using the formula: Effect Size=Least Square mean difference between PIM and PBO/SD. The corresponding 95% confidence interval for an effect size is calculated based on the theoretical probability distribution of the effect size. […] Tables 10-15 and 28-38 summarize the detailed data of MGH-SFI individual items of the overall study group (Tables 10-15), the female subgroup (Tables 33-37) and the male subgroup (Table 38-43). An treatment effect size (Cohen's d) is calculated using the formula: Effect Size=Least Square mean difference between PIM and PBO/SD. The corresponding 95% confidence interval for an effect size is calculated based on the theoretical probability distribution of the effect size. In Tables 10-15 and 28-38, ANCOVA=analysis of covariance; OC=observed cases; LSM=least squares mean; CI=confidence interval; SD=standard deviation; SE=standard error. Stage 1: Baseline=Study Week 0, Week 5=Study Week 5; Stage 2: Baseline=Study Week 5, Week 5=Study Weeks 10. LSM from the stage-specific ANCOVA analysis with the change from baseline as the outcome, treatment group as a factor, and the corresponding Baseline value as a covariate. 2-sided p-value for treatment difference from the stage-specific ANCOVA analysis. An treatment effect size (Cohen's d) is calculated using the formula: Effect Size=Least Square mean difference between PIM and PBO/SD. The corresponding 95% confidence interval for an effect size is calculated based on the theoretical probability distribution of the effect size.

[1] = Stage 2, Overall Study Group, 34 mg QD + SSRI/SNRI
[2] = Stage 2, Subgroup of <=50 Years
[3] = Stage 2, Subgroup of <=50 Years Old
[4] = Stage 2, Subgroup of <=50 Years Old, 34 mg QD + SSRI/SNRI
[5] = female subgroup, Stage 1 (Study Week 0 to 5), PIM 34 mg
[6] = female subgroup, Stage 1 (Study Week 5), PIM 34 mg
[7] = female subgroup, Stage 1, positive = pimavanserin better than placebo
[8] = female subgroup, Stage 2 (Study Week 5 to 10), PIM 34 mg
[9] = female subgroup, Stage 2 (Study Week 10), PIM 34 mg
[10] = female subgroup, Stage 2, positive = pimavanserin better than placebo

SMILES: CC(C)COc1ccc(CNC(=O)N(Cc2ccc(F)cc2)C2CCN(C)CC2)cc1 [pimavanserin, N-(4-Fluorophenylmethyl)-N-(1-methylpiperidin-4-yl)-N′-(4-(2-methylpropyloxy)phenylmethyl)carbamide]
- MGH-SFI 05: Overall Sexual Satisfaction, Effect Size (Cohen's d) (Stage 2, Overall Study Group): 0.404
- MGH-SFI 05: Overall Sexual Satisfaction, Week 5 Median (Stage 2, Overall Study Group): 4.5
- MGH-SFI 06: Overall Improvement Since Last Medication Change, Effect Size (Cohen's d) (Stage 2, Overall Study Group): 0.227
- MGH-SFI 06: Overall Improvement Since Last Medication Change, Week 5 Median (Stage 2, Overall Study Group): 4.0
- MGH-SFI 01: Interest in Sex, Week 5 Mean (SE) [1]: 4.1 (0.28)
- MGH-SFI 02: Ability to Get Sexually Aroused or Excited, Week 5 Mean (SE) [1]: 4.2 (0.27)
- MGH-SFI 03: Ability to Achieve Orgasm, Week 5 Mean (SE) [1]: 4.3 (0.32)
- MGH-SFI 04: (Men) Ability to Get and Maintain an Erection, Week 5 Mean (SE) [1]: 3.1 (0.54)
- MGH-SFI 05: Overall Sexual Satisfaction, Week 5 Mean (SE) [1]: 4.1 (0.33)
- MGH-SFI 06: Overall Improvement Since Last Medication Change, Week 5 Mean (SE) [1]: 3.6 (0.25)
- MGH-SFI 01: Interest in Sex, Change from Baseline to Week 5 Mean (SE) [2]: −0.3 (0.21)
- MGH-SFI 01: Interest in Sex, Change from Baseline to Week 5 Median [2]: 0.0
- MGH-SFI 01: Interest in Sex, Effect Size (Cohen's d) [2]: 0.081
- MGH-SFI 01: Interest in Sex, Week 5 Median [2]: 4.0
- MGH-SFI 02: Ability to Get Sexually Aroused or Excited, Change from Baseline to Week 5 Mean (SE) [3]: −0.3 (0.25)
- MGH-SFI 02: Ability to Get Sexually Aroused or Excited, Change from Baseline to Week 5 Median [3]: −1.0
- MGH-SFI 02: Ability to Get Sexually Aroused or Excited, Effect Size (Cohen's d) [3]: 0.017
- MGH-SFI 02: Ability to Get Sexually Aroused or Excited, Week 5 Median [3]: 4.0
- MGH-SFI 03: Ability to Achieve Orgasm, Change from Baseline to Week 5 Mean (SE) [3]: −0.3 (0.25)
- MGH-SFI 03: Ability to Achieve Orgasm, Change from Baseline to Week 5 Median [3]: 0.0
- MGH-SFI 03: Ability to Achieve Orgasm, Effect Size (Cohen's d) [3]: 0.449
- MGH-SFI 03: Ability to Achieve Orgasm, Week 5 Median [3]: 4.0
- MGH-SFI 02: Ability to Get Sexually Aroused or Excited, Week 5 Mean (SE) [4]: 4.1 (0.33)
- MGH-SFI 03: Ability to Achieve Orgasm, Week 5 Mean (SE) [4]: 4.1 (0.40)
- MGH-SFI 01: Interest in Sex, Week 5 Mean (SE) (Stage 2, Subgroup of <=50 Years, 34 mg QD + SSRI/SNRI): 3.9 (0.36)
- MGH-SFI Items effect sizes, mean change from baseline to Week 5 vs placebo (female patients): > 0.5
- MGH-SFI 01: Interest in Sex, Change from Baseline to Week 5 Mean (SE) [5]: −0.9 (0.21)
- MGH-SFI 01: Interest in Sex, Change from Baseline to Week 5 Median [5]: −1.0
- MGH-SFI 02: Ability to Get Sexually Aroused or Excited, Change from Baseline to Week 5 Mean (SE) [5]: −0.8 (0.17)
- MGH-SFI 02: Ability to Get Sexually Aroused or Excited, Change from Baseline to Week 5 Median [5]: −1.0
- MGH-SFI 03: Ability to Achieve Orgasm, Change from Baseline to Week 5 Mean (SE) [5]: −1.2 (0.27)
- MGH-SFI 03: Ability to Achieve Orgasm, Change from Baseline to Week 5 Median [5]: 0.0
- MGH-SFI 05: Overall Sexual Satisfaction, Change from Baseline to Week 5 Mean (SE) [5]: −0.9 (0.26)
- MGH-SFI 05: Overall Sexual Satisfaction, Change from Baseline to Week 5 Median [5]: 0.0
- MGH-SFI 01: Interest in Sex, Week 5 Mean (SE) [6]: 3.7 (0.29)
- MGH-SFI 01: Interest in Sex, Week 5 Median [6]: 4.0
- MGH-SFI 02: Ability to Get Sexually Aroused or Excited, Week 5 Mean (SE) [6]: 3.7 (0.28)
- MGH-SFI 02: Ability to Get Sexually Aroused or Excited, Week 5 Median [6]: 3.5
- MGH-SFI 03: Ability to Achieve Orgasm, Week 5 Mean (SE) [6]: 3.8 (0.28)
- MGH-SFI 03: Ability to Achieve Orgasm, Week 5 Median [6]: 4.0
- MGH-SFI 05: Overall Sexual Satisfaction, Week 5 Mean (SE) [6]: 3.8 (0.29)
- MGH-SFI 05: Overall Sexual Satisfaction, Week 5 Median [6]: 3.5
- MGH-SFI 06: Overall Improvement Since Last Medication Change, Week 5 Mean (SE) [6]: 3.2 (0.17)
- MGH-SFI 06: Overall Improvement Since Last Medication Change, Week 5 Median [6]: 4.0
- MGH-SFI 01: Interest in Sex, Effect Size (Cohen's d) [7]: 0.561
- MGH-SFI 02: Ability to Get Sexually Aroused or Excited, Effect Size (Cohen's d) [7]: 0.616
- MGH-SFI 03: Ability to Achieve Orgasm, Effect Size (Cohen's d) [7]: 0.749
- MGH-SFI 05: Overall Sexual Satisfaction, Effect Size (Cohen's d) [7]: 0.627
- MGH-SFI 06: Overall Improvement Since Last Medication Change, Effect Size (Cohen's d) [7]: 0.634
- MGH-SFI 01: Interest in Sex, Change from Baseline to Week 5 Mean (SE) [8]: −0.3 (0.17)
- MGH-SFI 01: Interest in Sex, Change from Baseline to Week 5 Median [8]: 0.0
- MGH-SFI 02: Ability to Get Sexually Aroused or Excited, Change from Baseline to Week 5 Mean (SE) [8]: −0.3 (0.20)
- MGH-SFI 02: Ability to Get Sexually Aroused or Excited, Change from Baseline to Week 5 Median [8]: 0.0
- MGH-SFI 03: Ability to Achieve Orgasm, Change from Baseline to Week 5 Mean (SE) [8]: −0.3 (0.20)
- MGH-SFI 03: Ability to Achieve Orgasm, Change from Baseline to Week 5 Median [8]: 0.0
- MGH-SFI 05: Overall Sexual Satisfaction, Change from Baseline to Week 5 Mean (SE) [8]: −0.4 (0.26)
- MGH-SFI 05: Overall Sexual Satisfaction, Change from Baseline to Week 5 Median [8]: 0.0
- MGH-SFI 01: Interest in Sex, Week 5 Mean (SE) [9]: 4.4 (0.34)
- MGH-SFI 01: Interest in Sex, Week 5 Median [9]: 5.0
- MGH-SFI 02: Ability to Get Sexually Aroused or Excited, Week 5 Mean (SE) [9]: 4.5 (0.32)
- MGH-SFI 02: Ability to Get Sexually Aroused or Excited, Week 5 Median [9]: 5.0
- MGH-SFI 03: Ability to Achieve Orgasm, Week 5 Mean (SE) [9]: 4.6 (0.38)
- MGH-SFI 03: Ability to Achieve Orgasm, Week 5 Median [9]: 5.0
- MGH-SFI 05: Overall Sexual Satisfaction, Week 5 Mean (SE) [9]: 4.6 (0.38)
- MGH-SFI 05: Overall Sexual Satisfaction, Week 5 Median [9]: 5.0
- MGH-SFI 06: Overall Improvement Since Last Medication Change, Week 5 Mean (SE) [9]: 3.6 (0.29)
- MGH-SFI 06: Overall Improvement Since Last Medication Change, Week 5 Median [9]: 4.0
- MGH-SFI 01: Interest in Sex, Effect Size (Cohen's d) [10]: 0.073
- MGH-SFI 02: Ability to Get Sexually Aroused or Excited, Effect Size (Cohen's d) [10]: −0.064
- MGH-SFI 03: Ability to Achieve Orgasm, Effect Size (Cohen's d) [10]: 0.132
